Experiments:
Format in all cases: in vivo
[1] = tested on: cotton; assay: Phytotoxicity on crop; parameters: key: when phytotoxicity is hardly perceived, it is represented by “no damage”; when slight phytotoxicity is perceived, it is represented by “slight”; when moderate phytotoxicity is perceived, it is represented by “moderate”; when severe phytotoxicity is perceived, it is represented by “severe”; conditions: soil treated with flumioxazin 50 or 75 g/ha 15 days before seeding
From the text: For evaluation of phytotoxicity on a crop, when phytotoxicity is hardly perceived, it is represented by “no damage”, when slight phytotoxicity is perceived, it is represented by “slight”, when moderate phytotoxicity is perceived, it is represented by “moderate”, and when severe phytotoxicity is perceived, it is represented by “severe”. The “phytotoxicity” evaluated herein is a damage characteristic determined to be caused by the treated compound, and is clearly discriminated from a damage characteristic caused by a pest.
(§1) Into a plastic cup having an internal diameter of 96 millimeters and a height of 44 millimeters are placed 25 microliters of a clothianidin suspension (suspension containing 600 g/L clothianidin, trade name: NipsIt INSIDE, manufactured by Valent USA) and 50 grains of cotton seeds. By shaking this plastic cup with a hand, the clothianidin suspension is attached to the cotton seeds.
Into a pot made of a plastic having an internal diameter of 177 millimeters and a height of 140 millimeters is packed a soil in which each of about 500 milligrams of seeds of Conyza canadensis, Amaranthus palmeri and Chenopodium album are mixed. A liquid of a flumioxazin water dispersible granule (water dispersible granule containing 51% of flumioxazin, trade name: Valor SX, manufactured by Valent USA) diluted with water is uniformly sprayed on the soil surface of this pot with a sprayer, so that flumioxazin is applied in an amount of 50 or 75 g/ha. Fifteen days after spraying, the cotton seeds are seeded at 5 grains per pot.
Six days after release of Aphis gossypii, the insecticidal activity, herbicidal activity and phytotoxicity are determined, and high weed controlling activity (>80) and high Aphis gossypii control value (>70) are obtained, and the phytotoxicity on the cotton is “no damage”.
Into a plastic cup having an internal diameter of 96 millimeters and a height of 44 millimeters are placed 25 microliters of a thiamethoxam preparation (preparation containing 600 g/L thiamethoxam, trade name: Cruiser 5FS, manufactured by Syngenta) and 50 grains of cotton seeds. By shaking this plastic cup with a hand, the thiamethoxam preparation is attached to the cotton seeds.

[2] = tested on: Aphis gossypii; assay: Insecticidal activity (controlling value) on cotton grown from treated seeds; conditions: soil treated with flumioxazin 50 or 75 g/ha, six days after release of Aphis gossypii
Protocol: For evaluating the insecticidal activity, life or death of an insect at investigation is determined, and a controlling value is obtained by the following equation:
Controlling value(%)=100×(1−T/C)
C: Number of insects at observation of non-treated section T: Number of insects at observation of treated-section
as §1
Fifteen days after seeding with the cotton seeds, a cotton leaf piece on which 20 larvae and 20 adults of Aphis gossypii inhabited is placed in the pot, and the whole plant is covered with a nylon cloth.
(§2) Six days after release of Aphis gossypii, the insecticidal activity, herbicidal activity and phytotoxicity are determined, and high weed controlling activity (>80) and high Aphis gossypii control value (>70) are obtained, and the phytotoxicity on the cotton is “no damage”. […]

[3] = tested on: Conyza canadensis, Amaranthus palmeri and Chenopodium album; assay: Herbicidal activity in pot test, soil surface treated before seeding with treated cotton seeds; conditions: assessed 21 days after seeding
From the text: Evaluation of herbicidal activity is classified into 0 to 100, letting no or little difference when the state of germination or growth of a test weed at investigation is compared with that of non-treatment to be “0”, and letting complete withering of a test weed or complete inhibition of germination or growth to be “100”.
as §1
Into a pot made of a plastic having an internal diameter of 177 millimeters and a height of 140 millimeters is packed a soil in which each of about 500 milligrams of seeds of Conyza canadensis, Amaranthus palmeri and Chenopodium album are mixed. […]
as §2

[4] = Example 1: clothianidin-treated cotton seeds
[5] = Example 2: thiamethoxam-treated cotton seeds

Row | SMILES | phytotoxicity on the cotton [1, 4] | Aphis gossypii control value ([2]; Example 1: clothianidin suspension (NipsIt INSIDE, 600 g/L) 25 microliters per 50 cotton seeds) [%] | weed controlling activity (herbicidal activity, scale 0 to 100) ([3]; Example 1: flumioxazin (Valor SX) 50 or 75 g/ha on soil surface 15 days before seeding, cotton seeds treated with clothianidin) | weed controlling activity (herbicidal activity, scale 0 to 100) ([3]; Example 2: flumioxazin (Valor SX) 50 or 75 g/ha on soil surface 15 days before seeding, cotton seeds treated with thiamethoxam) | phytotoxicity on the cotton [1, 5] | Aphis gossypii control value ([2]; Example 2: thiamethoxam preparation (Cruiser 5FS, 600 g/L) 25 microliters per 50 cotton seeds) [%]
1 | CN/C(=N\[N+](=O)[O-])NCc1cnc(Cl)s1 [clothianidin] | no damage | > 70 | – | – | – | –
2 | C#CCN1C(=O)COc2cc(F)c(N3C(=O)C4=C(CCCC4)C3=O)cc21 [flumioxazin] | no damage | – | > 80 | > 80 | no damage | –
3 | CN1COCN(Cc2cnc(Cl)s2)/C1=N\[N+](=O)[O-] [thiamethoxam] | – | – | – | – | no damage | > 70
